For experiment [1], the system named is ABUTH: Abutilon theophrasti. Nature of the experiment: Post-emergence herbicidal efficacy at 80 g/ha, ABUTH. The format is in vivo. The following applies: rated visually after about 3 weeks vs untreated controls, 100% = plants have died, 0% = like control plants. The method, then: (§1) Seeds of monocotyledonous and dicotyledonous weeds and crop plants were placed in sandy loam in plastic or organic planting pots, covered with soil and cultivated in a greenhouse under controlled growth conditions. 2 to 3 weeks after sowing, the test plants were treated at the one-leaf stage. The compounds of the invention, formulated in the form of wettable powders (WP) or as emulsion concentrates (EC), were then sprayed onto the green parts of the plants as aqueous suspension or emulsion with addition of 0.5% additive at a water application rate of 600 l/ha (converted). After the test plants had been kept in the greenhouse under optimum growth conditions for about 3 weeks, the activity of the preparations was rated visually in comparison to untreated controls. For example, 100% activity=the plants have died, 0% activity=like control plants. Tables B1 to B10 below show the effects of selected compounds of the general formula (I) according to Table 1 on various harmful plants and an application rate corresponding to 80 g/ha, which were obtained by the experimental procedure mentioned above.

The subject of experiment [2] is ALOMY: Alopecurus myosuroides. The experiment can be described thus: Post-emergence herbicidal efficacy at 80 g/ha, ALOMY. To be noted: visual rating about 3 weeks after treatment vs untreated controls. The format is in vivo. On the procedure: as §1
Experiment [3] concerns AMARE: Amaranthus retroflexus. The experiment can be described thus: Post-emergence herbicidal efficacy at 80 g/ha, AMARE. The following applies: visual rating about 3 weeks after treatment vs untreated controls. The format is in vivo. The essentials: (§2)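 Greenhouse plants grown in sandy loam were sprayed at the one-leaf stage, 2 to 3 weeks after sowing, with WP or EC formulations in water containing 0.5% additive at 600 l/ha. Visual rating against untreated controls came about 3 weeks later (100% = dead, 0% = as control).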

The subject of experiment [4] is DIGSA: Digitaria sanguinalis. The experiment can be described thus: Post-emergence herbicidal efficacy at 80 g/ha, DIGSA. The format is in vivo. The following applies: visual rating about 3 weeks after treatment vs untreated controls. The method, then:
as §1

Experiment [5] deals with ECHCG: Echinochloa crus-galli. Nature of the experiment: Post-emergence herbicidal efficacy at 80 g/ha, ECHCG. The format is in vivo. To be noted: visual rating about 3 weeks after treatment vs untreated controls. The method, then:
as §1

In experiment [6] the test system is POLCO. Nature of the experiment: Post-emergence herbicidal efficacy at 80 g/ha, POLCO. The format is in vivo, Polygonum convolvulus. To be noted: visual rating about 3 weeks after treatment vs untreated controls. On the procedure:
as §1

The test system of experiment [7] is SETVI: Setaria viridis. The experiment can be described thus: Post-emergence herbicidal efficacy at 80 g/ha, SETVI. The format is in vivo. To be noted: visual rating about 3 weeks after treatment vs untreated controls. On the procedure: as §1
Experiment [8] concerns VERPE: Veronica persica. Nature of the experiment: Post-emergence herbicidal efficacy at 80 g/ha, VERPE. The format is in vivo. The following applies: visual rating about 3 weeks after treatment vs untreated controls. Put shortly:
as §2

The subject of experiment [9] is ABUTH: Abutilon theophrasti. The experiment can be described thus: Pre-emergence herbicide efficacy at 80 g/ha, ABUTH. The format is in vivo. The following applies: scored visually after about 3 weeks. Put shortly:
(§3)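 Percent activity (0% = as controls, 100% = plants dead) was read visually around 3 weeks post-treatment. Treatment: covering soil of sown pots sprayed with compound suspension or emulsion, 0.5% additive, water rate equal to 600 l/ha; pots then held in greenhouse.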

The subject of experiment [10] is ALOMY: Alopecurus myosuroides. The experiment can be described thus: Pre-emergence herbicide efficacy at 80 g/ha, ALOMY. The format is in vivo. The following applies: scored visually after about 3 weeks. The source says: (§4) Seeds of monocotyledonous and dicotyledonous weed plants and crop plants were placed in plastic or organic planting pots and covered with soil. The compounds of the invention, formulated in the form of wettable powders (WP) or as emulsion concentrates (EC), were then applied to the surface of the covering soil as aqueous suspension or emulsion with addition of 0.5% additive at a water application rate equivalent to 600 l/ha. After the treatment, the pots were placed in a greenhouse and kept under good growth conditions for the test plants. After about 3 weeks, the efficacy of the preparations was scored visually in comparison with untreated controls as percentages. For example, 100% activity=the plants have died, 0% activity=like control plants. Tables D1 to D12 below show the effects of selected compounds of the general formula (I) according to Table 1 on various harmful plants and an application rate corresponding to 80 g/ha, which were obtained by the experimental procedure mentioned above.

Experiment [11] relates to AMARE: Amaranthus retroflexus. The experiment can be described thus: Pre-emergence herbicide efficacy at 80 g/ha, AMARE. The format is in vivo. To be noted: scored visually after about 3 weeks. Put shortly: as §3
The test system of experiment [12] is DIGSA: Digitaria sanguinalis. The experiment can be described thus: Pre-emergence herbicide efficacy at 80 g/ha, DIGSA. The format is in vivo. To be noted: scored visually after about 3 weeks. Put shortly:
as §3

For experiment [13], the system named is ECHCG: Echinochloa crus-galli. The experiment can be described thus: Pre-emergence herbicide efficacy at 80 g/ha, ECHCG. The following applies: scored visually after about 3 weeks. The format is in vivo.
From the text: as §4

For the next experiment, the system named is LOLRI: Lolium rigidum. The experiment can be described thus: Pre-emergence herbicide efficacy at 80 g/ha, LOLRI. To be noted: scored visually after about 3 weeks. The format is in vivo.
From the text: as §4

The subject of experiment [14] is MATIN: Matricaria inodora. Nature of the experiment: Pre-emergence herbicide efficacy at 80 g/ha, MATIN. To be noted: scored visually after about 3 weeks. The format is in vivo.
From the text: as §4

The test system of experiment [15] is POLCO. Nature of the experiment: Pre-emergence herbicide efficacy at 80 g/ha, POLCO. The format is in vivo. To be noted: Polygonum convolvulus, scored visually after about 3 weeks. Put shortly:
as §3

For experiment [16], the system named is SETVI: Setaria viridis. Nature of the experiment: Pre-emergence herbicide efficacy at 80 g/ha, SETVI. The following applies: scored visually after about 3 weeks. The format is in vivo.
From the text: as §4

In experiment [17] the test system is VERPE: Veronica persica. Nature of the experiment: Pre-emergence herbicide efficacy at 80 g/ha, VERPE. The format is in vivo. The following applies: scored visually after about 3 weeks. Put shortly:
as §3

For the compound `FC(F)c1cc(-c2c(Cl)cccc2Cc2ncc(Cl)cn2)on1` [Example 1-140], in experiment [1], the “Post-emergence efficacy at 80 g/ha against ABUTH in %” value amounted to 100%. Moreover, the “Post-emergence efficacy against ALOMY” value in experiment [2] is 80%. Also, the “Post-emergence efficacy against AMARE” value in experiment [3] was 100%. For the same compound, in [4], the “Post-emergence efficacy against DIGSA” value was determined as 90%. Also, the “Post-emergence efficacy against ECHCG” value in [5] is given as 90%. Besides, the “Post-emergence efficacy against POLCO” value in the experiment with POLCO [6] was 100%. In addition, the “Post-emergence efficacy against SETVI” value in the experiment on SETVI: Setaria viridis [7] came out at 80%. In the experiment on VERPE: Veronica persica [8], the “Post-emergence efficacy against VERPE” value is given as 100%. The “Pre-emergence efficacy against ABUTH in %” value in experiment [9] is listed as 100%. Further, the “Pre-emergence efficacy against ALOMY in %” value in experiment [10] worked out at 90%. In addition, in experiment [11], the “Pre-emergence efficacy against AMARE in %” value is given as 100%. In experiment [12], the “Pre-emergence efficacy against DIGSA in %” value is 100%. In addition, the “Pre-emergence efficacy against ECHCG in %” value in [13] is recorded as 100%. Besides, in the experiment with LOLRI: Lolium rigidum, the “Pre-emergence efficacy against LOLRI in %” value is recorded as 90%. Also, the “Pre-emergence efficacy against MATIN in %” value in experiment [14] is 80%. Also, the “Pre-emergence efficacy against POLCO in %” value in the experiment on POLCO [15] is 90%. In addition, the “Pre-emergence efficacy against SETVI in %” value with SETVI: Setaria viridis [16] is on record as 100%. In the experiment with VERPE: Veronica persica [17], the “Pre-emergence efficacy against VERPE in %” value came out at 100%.

These data come from US20250221410A1, “SUBSTITUTED 2-C-AZINES AND SALTS THEREOF, AND USE THEREOF AS HERBICIDAL ACTIVE SUBSTANCES” (BAYER AKTIENGESELLSCHAFT, priority 2022, published 2025).
